According to ChEMBL document CHEMBL4706483, “Discovery of novel phosphatidylcholine-specific phospholipase C drug-like inhibitors as potential anticancer agents” (Eur J Med Chem, 2020):
Active and inactive are the calls of the source. No cut-off for these calls is given here.

What follows are compounds tested against Phospholipase C (Bacillus cereus) (UniProt P09598) (assay: Inhibition of recombinant Bacillus cereus N-terminal His6-tagged full length PC-PLC 3C Protease cleavage site expressed in Escherichia coli BL21(DE3) cells at 10 uM using phosphatidylcholine as substrate by amplex red assay relative to control).
Sequence of Phospholipase C (Bacillus cereus) (P09598 whole entry, looked up): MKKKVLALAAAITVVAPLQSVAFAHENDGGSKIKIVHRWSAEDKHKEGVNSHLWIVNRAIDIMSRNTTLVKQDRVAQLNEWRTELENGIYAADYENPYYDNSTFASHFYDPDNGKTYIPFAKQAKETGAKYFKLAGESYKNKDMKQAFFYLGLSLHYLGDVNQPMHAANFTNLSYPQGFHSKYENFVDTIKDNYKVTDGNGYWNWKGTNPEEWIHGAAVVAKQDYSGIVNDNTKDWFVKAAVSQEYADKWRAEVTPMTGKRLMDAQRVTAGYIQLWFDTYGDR

Row | inhibition | SMILES
1 | 65% | O=C(O)c1cc(NCc2ccc(Cl)cc2Cl)ccc1N1CCOCC1
2 | 65% | Cc1[nH]c2ccc(Cl)cc2c1CC(=O)O
3 | inactive | O=C(O)c1ccccc1N1CCOCC1
4 | 89% | O=C(O)c1cc(NCc2ccccc2Cl)ccc1N1CCOCC1
5 | 75% | O=C(O)C1Cc2c([nH]c3ccccc23)C(c2ccc(O)c(O)c2)N1 (stereo not drawn)
6 | inactive | CSc1ccc(CNc2ccc(N3CCOCC3)c(C(=O)O)c2)cc1
7 | inactive | O=C(O)c1cc(NCc2ccccc2C(F)(F)F)ccc1N1CCOCC1
8 | 89% | O=C(O)c1cc(NCc2cccc(Cl)c2)ccc1N1CCOCC1
9 | inactive | CN1CCN(c2ccc(NCc3cccc(Br)c3)cc2C(=O)O)CC1
10 | 60% | Cc1[nH]c2ccc(C(=O)O)cc2c1CC(=O)O
11 | 37% | O=C(O)C1Cc2c([nH]c3ccccc23)C(c2ccc(C(F)(F)F)cc2)N1 (stereo not drawn)
12 | 67% | O=C(O)c1cc(NCc2ccccc2)ccc1N1CCOCC1
13 | 47% | COc1cccc(C(=O)Nc2ccc(O)cc2C(=O)O)c1
14 | 43% | CN(C)c1ccc(C2NC(C(=O)O)Cc3c2[nH]c2ccccc32)cc1 (stereo not drawn)
15 | 60% | COc1cc(C2NC(C(=O)O)Cc3c2[nH]c2ccccc32)cc(OC)c1O (stereo not drawn)
16 | 25% | O=C(O)c1cccc(NS(=O)(=O)c2ccc(C3CCCCC3)cc2)c1
17 | 44% | O=C(O)C1Cc2c([nH]c3ccccc23)C(c2ccc(Cl)cc2Cl)N1 (stereo not drawn)

Row | SMILES | inhibition
18 | O=C(O)c1cc(NCc2cccc(Br)c2)ccc1N1CCOCC1 | 80%
